Data on five molecules can be found in publication PMC7575509, “Phase I study of DFP-11207, a novel oral fluoropyrimidine with reasonable AUC and low Cmax and improved tolerability, in patients with solid tumors” (Investigational New Drugs, 2020).

Entries after “also recorded” stand apart in the source; their conditions may differ. Bounds are passed on as bounds.

Series [1] is described as follows: Plasma pharmacokinetics, Phase I Study (LC-MS/MS of DFP-11207 metabolites). To be noted: for AUC(0-t) / Cmax / Tmax / concentration at 2 day (Cycle 1): human, po.
A short description of series [2]: Urine pharmacokinetics, Phase I Study. In kind it is in vivo, human (patients). Conditions: Cycle 1, 0–48 hours after the DFP-11207 dose of 330 mg/m^2/day.
Series [3] can be described thus: Plasma pharmacokinetics, Food Effect Study (fed vs fasted). Conditions: for detectability in plasma during fed and fasted dosing: 6 patients.
The conditions of series [4]: ref 18 (capecitabine), 19 (UFT), 20 (S-1); cited from earlier work.

With `O=c1[nH]cc(F)c(=O)[nH]1` [5-FU, 5-fluorouracil, reference compound], the “5-FU Cmax at steady state” value in series [1] (DFP-11207 330 mg/m^2/day orally every 12 hours) is reported as less than 25 ng/mL. For the same molecule, in series [1] (plasma, 330 mg/m2), the exposure AUC(0-t) came out at 220 ng·h/mL, the Cmax amounted to 9.65 ng/mL and the Tmax amounted to 24 h. In addition, in series [1] (plasma, 330 mg/m^2/day), the concentration at 2 day (Cycle 1) lay in the range of 4.01 to 25.5 ng/mL. Further, in series [1] (plasma, 440 mg/m2), the Cmax turned out to be 8.75 ng/mL and the Tmax was 12 h. The concentration at 2 day (Cycle 1) in series [1] (plasma, 440 mg/m^2/day) lay within 3.39 to 13 ng/mL. Also, the “blood concentrations maintained throughout the dose cycle” value in series [1] (oral DFP-11207 at 330 and 440 mg/m^2/day) is reported as “approximately 20 ng/mL”. For the same molecule, the “AUClast, Mean (SD)” value in series [1] (plasma, Day 1, oral DFP-11207 440 mg/m^2) is 3; 311 (214) ng·h/mL. In series [2], this molecule returned a urinary excretion of 0.12%. For the same molecule, in series [3] (in vivo), the “difference in plasma levels (Cmax or AUClast) between fasted and fed conditions” value was “no influence; also recorded: no clear differences”.

Regarding `O=C(O)c1cc(O)nc(O)c1` [CTA, citrazinic acid], in series [1] (plasma, 330 mg/m2), the AUC(0-t) is 254 ng·h/mL, the Cmax stood at 9.81 ng/mL and the Tmax stood at 8 h. In series [1] (plasma, 440 mg/m2), the AUC(0-t) is 388 ng·h/mL, the Cmax came to 9.72 ng/mL and the Tmax turned out to be 4 h. The molecule also registered a urinary excretion in series [2] of 0.07%. Besides, the “difference in plasma levels (Cmax or AUClast) between fasted and fed conditions” value in series [3] (DFP-11207 300 mg twice daily, patients serving as their own controls) is “no clear differences”.

Turning to `CCOCn1cc(F)c(=O)[nH]c1=O` [EM-FU, 1-ethoxymethyl-5-fluorouracil], the AUC(0-t) turned out to be 39900 ng·h/mL in series [1] (plasma, 330 mg/m2) and 49400 ng·h/mL in series [1] (plasma, 440 mg/m2). The Cmax amounted to 1310 ng/mL in series [1] (plasma, 330 mg/m2) and 1400 ng/mL in series [1] (plasma, 440 mg/m2). Besides, the Tmax came to 48 h in series [1] (plasma, 330 mg/m2) and 24 h in series [1] (plasma, 440 mg/m2). Also, the concentration at 2 day (Cycle 1) lay within 559 to 1380 ng/mL in series [1] (plasma, 330 mg/m^2/day) and 948 to 1770 ng/mL in series [1] (plasma, 440 mg/m^2/day). For the same molecule, the urinary excretion in series [2] is given as 0.71%. Also, the “detectability in plasma during fed and fasted dosing” value in series [3] (DFP-11207 300 mg twice daily) is recorded as “detectable in plasma at all time points”.

Take `Oc1cc(O)c(Cl)cn1` [CDHP, 5-chloro-2,4-dihydroxypyridine]: in series [1] (plasma, 330 mg/m2), the AUC(0-t) is 2410 ng·h/mL, the Cmax was 90.4 ng/mL and the Tmax stood at 24 h. Besides, in series [1] (plasma, 440 mg/m2), the AUC(0-t) was 2810 ng·h/mL, the Cmax turned out to be 93.6 ng/mL and the Tmax was determined as 26 h. This molecule also registered a urinary excretion in series [2] of 1.98%. The “detectability in plasma during fed and fasted dosing” value in series [3] (DFP-11207 300 mg twice daily) is reported as “detectable in plasma at all time points”.

In the case of `CCCCCOC(=O)Nc1nc(=O)n([C@@H]2O[C@H](C)[C@@H](O)[C@H]2O)cc1F` [capecitabine], the primary dose-limiting toxicity result in series [4] was “hand-foot syndrome”.

By AUC(0-t) is commonly meant the area under the concentration-time curve up to a stated or last time point. Usually Cmax stands for the highest concentration seen after dosing. One may read the Tmax as the time at which the peak concentration occurs.
